Assay results: patent publication US9629885B1, “Method for treating candidiasis” (KING SAUD UNIVERSITY, priority 2016, dated 2017)
≈ marks a conversion by molar mass, not a printed value. Blank lines part the entries; values can stand above or below the compound they belong to.

How the values were obtained:
[1] = system: Male Wister rats; test: Sub-chronic toxicity test, liver and kidney functions; type: in vivo
Experimental: Male Wister rats (weighing about 150-180 g) were divided into 3 equal groups each of 10 rats. Rats of the first group received the vehicle in a dose of 5 mL/kg and left as normal control. Rats of the second and third groups were administered the alcoholic extract of the investigated fungi (500 mg/kg) and the isolated compound (50 mg/kg). All medications were administered orally daily for 15 consecutive days. Animals were maintained under identical conditions with food and water ad libitum for the entire period with close observation. At the end of the experimental period, blood samples were collected from the orbital plexus of rats, 6 h after the last dose. Samples were left to clot at room temperature for 20 min. The obtained sera were collected and used to determine the activity of (AST) aspirate aminotransferase and (ALT) alanine aminotransferase, levels of urea and creatinine were also estimated (Awaad et al. 2014).
The effect of the total alcohol extract of Petriella setifera and isolated compound (Amnomopin) on liver and kidney functions are provided in Table 2. Three groups of animals (n=10) were orally administered the total alcohol extracts (500 mg/kg) and the isolated compound (50 mg/kg) daily for 15 days, while the control group received water orally. After the treatment period, blood samples were collected, sera were separated and different parameters were measured as provided in Table 2. All values were expressed as mean±S.D.

[2] = system: C. dubliniensis; test: Minimum inhibitory concentration, micro-dilution method; type: cell-based; settings: malt extract broth, 37° C., 24-48 h
Description: (§1) The fungal strain was isolated from a soil sample collected from Al-Qassim region, Kingdom of Saudi Arabia (KSA). The malt extract agar (MEA) medium (malt extract, 20 g; peptone, 1 g; dextrose, 20 g; agar, 20 g; distilled water, 1 L) was used for isolation, cultivation, identification and production of fungal secondary metabolites of the fungal isolate and test Candida species. Ten clinically isolated Candida species; namely, Candida albicans, C. dubliniensis, C. famata, C. glabrata, C. inconspicua, C. kefyr, C. krusei, C. norvegensis, C. parapsilosis, and C. tropicalis were used as test microorganisms. The fungal isolate and the test organism were identified at the Microbiology Laboratory, Regional Center for Mycology and Biotechnology, Al-Azhar University, Cairo, Egypt.
(§2) The minimum inhibitory concentration (MIC) was determined for both total extract of Petriella setifera and the isolated compound by micro-dilution method using serially diluted (2 folds) according to Awaad et al. (2012). The MIC was determined by dilution of total extract and isolated compound of concentrations of 0.0-1000 μg/ml. Equal volume of each extract and malt extract broth were mixed in a test tube. Specifically, 0.1 ml of standardized inoculum (1-2×10^7 CFU/ml) was added in each tube. The tubes were incubated at 37° C. for 24-48 h. Two control tubes; tube containing the growth medium, saline and the inoculum, were maintained for each test batch. The lowest concentration (highest dilution) of the extract that produced no visible candidal growth (no turbidity) when compared with the control tubes were regarded as MIC.

[3] = system: C. kefyr; test: as above; type: cell-based; settings: malt extract broth, 37° C., 24-48 h
Description: as §1, §2

[4] = system: C. glabrata; test: as above; type: cell-based; settings: malt extract broth, 37° C., 24-48 h
Description: as §1, §2

[5] = system: C. krusei; test: as above; type: cell-based; settings: malt extract broth, 37° C., 24-48 h
Description: as §1, §2

[6] = system: C. tropicalis; test: as above; type: cell-based; settings: malt extract broth, 37° C., 24-48 h
Description: as §1, §2

[7] = system: C. parapsilosis; test: as above; type: cell-based; settings: malt extract broth, 37° C., 24-48 h
Description: as §1, §2

[8] = system: C. norvegensis; test: as above; type: cell-based; settings: malt extract broth, 37° C., 24-48 h
Description: as §1, §2

[9] = system: Candida albicans; test: as above; type: cell-based; settings: C. albicans, malt extract broth, 37° C., 24-48 h
Description: as §1, §2

[10] = system: C. inconspicua; test: as above; type: cell-based; settings: malt extract broth, 37° C., 24-48 h
Description: as §1, §2

[11] = system: C. famata; test: as above; type: cell-based; settings: malt extract broth, 37° C., 24-48 h
Description: as §1, §2

[12] = system: C. dubliniensis; test: Anticandidal activity, well-diffusion method; type: cell-based; settings: 50 μl per 6 mm well, 100 mg/ml, 37° C., 24-48 h
Description: as §1
(§3) Anticandidal activities of total alcoholic extract of Petriella setifera and the isolated compound (amnomopin) were determined using well-diffusion method according to Zain et al. (2012). Petri plates containing 20 ml of malt extract agar medium were seeded with 48 h cultures of candidal inoculums (1-2×10^7 Colony Forming Units [CFU/ml]). Wells (6 mm in diameter) were cut off into agar and 50 μl of extract and the isolated compound were tested in a concentration of 100 mg/ml and incubated at 37° C. for 24-48h. The assessment of anticandidal activity was based on measurement of the diameter of the inhibition zone formed around the well.

[13] = system: C. kefyr; test: Anticandidal activity, well-diffusion method; type: cell-based; settings: 50 μl per 6 mm well, 100 mg/ml, 37° C., 24-48 h
Description: as §1, §3

[14] = system: C. glabrata; test: Anticandidal activity, well-diffusion method; type: cell-based; settings: 50 μl per 6 mm well, 100 mg/ml, 37° C., 24-48 h
Description: as §1, §3

[15] = system: C. krusei; test: Anticandidal activity, well-diffusion method; type: cell-based; settings: 50 μl per 6 mm well, 100 mg/ml, 37° C., 24-48 h
Description: as §1, §3

[16] = system: C. tropicalis; test: Anticandidal activity, well-diffusion method; type: cell-based; settings: 50 μl per 6 mm well, 100 mg/ml, 37° C., 24-48 h
Description: as §1, §3

[17] = system: C. parapsilosis; test: Anticandidal activity, well-diffusion method; type: cell-based; settings: 50 μl per 6 mm well, 100 mg/ml, 37° C., 24-48 h
Description: as §1, §3

[18] = system: C. norvegensis; test: Anticandidal activity, well-diffusion method; type: cell-based; settings: 50 μl per 6 mm well, 100 mg/ml, 37° C., 24-48 h
Description: as §1, §3

[19] = system: Candida albicans; test: Anticandidal activity, well-diffusion method; type: cell-based; settings: C. albicans, 50 μl per 6 mm well, 100 mg/ml, 37° C., 24-48 h
Description: as §1, §3

[20] = system: C. inconspicua; test: Anticandidal activity, well-diffusion method; type: cell-based; settings: 50 μl per 6 mm well, 100 mg/ml, 37° C., 24-48 h
Description: as §1, §3

[21] = system: C. famata; test: Anticandidal activity, well-diffusion method; type: cell-based; settings: 50 μl per 6 mm well, 100 mg/ml, 37° C., 24-48 h
Description: as §1, §3

[22] = rat serum, oral daily for 15 days, mean±S.D., n=10

MIC ([2]; Candida dubliniensis): 62.5 µg/mL (≈ 80 µM)
MIC ([3]; Kluyveromyces marxianus): 0.49 µg/mL (≈ 0.627 µM)
Minimum Inhibitory Concentration (MIC) [3]: 00.98 µg/mL
MIC ([4]; Nakaseomyces glabratus): 62.5 µg/mL (≈ 80 µM)
MIC ([5]; Pichia kudriavzevii): 1.95 µg/mL (≈ 2.5 µM)
MIC ([6]; Candida tropicalis): 7.81 µg/mL (≈ 10 µM)
MIC ([7]; Lodderomyces parapsilosis): 32.2 µg/mL (≈ 41.3 µM)
MIC ([8]; Pichia norvegensis): 0.98 µg/mL (≈ 1.25 µM)
Minimum Inhibitory Concentration (MIC) [8]: 01.95 µg/mL
Minimum Inhibitory Concentration (MIC) [9]: 01.95 µg/mL
Minimum Inhibitory Concentration (MIC) ([9]; listed as amnomopin): 00.49 µg/mL
MIC ([10]; Pichia inconspicua): 32.2 µg/mL (≈ 41.3 µM)
MIC ([11]; Debaryomyces hansenii): 3.9 µg/mL (≈ 4.99 µM)
SMILES: CC1(C)CCC2(C(=O)O)CCC3(C)C(CCC4C5(C)CCC(O[C@@H]6OC(CO)[C@@H](O)C(O)C6O[C@@H]6OC(CO)[C@@H](O)C(O)C6O)C(C)(C)C5=CCC43C)C2C1 (stereo partly drawn) [Amnomopin, 3β-diglucoside-5, 12-28-oic acid]
Kidney function Blood urea [1, 22]: 30.85 ± 1.83 mg/dL
Kidney function Serum Creatinine [1, 22]: 0.38 ± 0.02 mg/dL
Liver function ALT [1, 22]: 146.30 ± 4.30 U/l
Liver function AST [1, 22]: 66.72 ± 2.82 U/l
effect on the activity of ALT, AST and the levels of blood urea and serum creatinine ([1]; rats, oral dosing for 15 days, extract 500 mg/kg, compound 50 mg/kg): did not show any significant effect
zone of inhibition at 100000 µg/mL ([12]; Candida dubliniensis, read-out: Diameter of inhibition zone): 16.2 ± 0.63 mm
Diameter of inhibition zone [13]: 24.2 ± 2.10 mm
zone of inhibition at 100000 µg/mL ([13]; Kluyveromyces marxianus, read-out: Diameter of inhibition zone): 24.2 ± 2.1 mm
zone of inhibition at 100000 µg/mL ([14]; Nakaseomyces glabratus, read-out: Diameter of inhibition zone): 16.3 ± 0.63 mm
zone of inhibition at 100000 µg/mL ([15]; Pichia kudriavzevii, read-out: Diameter of inhibition zone): 20.9 ± 0.58 mm
zone of inhibition at 100000 µg/mL ([16]; Candida tropicalis, read-out: Diameter of inhibition zone): 19.4 ± 1.2 mm
zone of inhibition at 100000 µg/mL ([17]; Lodderomyces parapsilosis, read-out: Diameter of inhibition zone): 18.4 ± 0.72 mm
Diameter of inhibition zone [18]: 22.1 ± 1.20 mm
zone of inhibition at 100000 µg/mL ([18]; Pichia norvegensis, read-out: Diameter of inhibition zone): 22.1 ± 1.2 mm
Diameter of inhibition zone [19]: 23.1 ± 2.10 mm
zone of inhibition at 100000 µg/mL ([19]; Candida albicans, read-out: Diameter of inhibition zone): 23.1 ± 2.1 mm
zone of inhibition at 100000 µg/mL ([20]; Pichia inconspicua, read-out: Diameter of inhibition zone): 18.3 ± 2.1 mm
zone of inhibition at 100000 µg/mL ([21]; Debaryomyces hansenii, read-out: Diameter of inhibition zone): 20.1 ± 1.5 mm

Minimum Inhibitory Concentration (MIC) [2]: 00.49 µg/mL
Minimum Inhibitory Concentration (MIC) [3]: 00.49 µg/mL
Minimum Inhibitory Concentration (MIC) [4]: 03.90 µg/mL
Minimum Inhibitory Concentration (MIC) [5]: 00.98 µg/mL
Minimum Inhibitory Concentration (MIC) [6]: 03.90 µg/mL
Minimum Inhibitory Concentration (MIC) [7]: 00.49 µg/mL
Minimum Inhibitory Concentration (MIC) [8]: 00.49 µg/mL
Minimum Inhibitory Concentration (MIC) [9]: 00.49 µg/mL
Minimum Inhibitory Concentration (MIC) [10]: 00.98 µg/mL
Minimum Inhibitory Concentration (MIC) [11]: 03.90 µg/mL
SMILES: C[C@@H]1[C@H](O)[C@@H](C)/C=C/C=C/C=C/C=C/C=C/C=C/C=C/[C@H](O[C@@H]2O[C@H](C)[C@@H](O)[C@H](N)[C@@H]2O)C[C@@H]2O[C@](O)(C[C@@H](O)C[C@@H](O)[C@H](O)CC[C@@H](O)C[C@@H](O)CC(=O)O[C@H]1C)C[C@H](O)[C@H]2C(=O)O [Amphotericin B, reference compound]
Diameter of inhibition zone [12]: 24.1 ± 1.20 mm
Diameter of inhibition zone [13]: 26.3 ± 1.20 mm
Diameter of inhibition zone ([13]; listed as amphotericin B): 26.3±1.20 mm
Diameter of inhibition zone [14]: 19.3 ± 2.10 mm
Diameter of inhibition zone [15]: 23.7 ± 0.63 mm
Diameter of inhibition zone [16]: 19.6 ± 1.50 mm
Diameter of inhibition zone [17]: 32.4 ± 0.58 mm
Diameter of inhibition zone [18]: 28.7 ± 0.72 mm
Diameter of inhibition zone [19]: 26.3 ± 1.20 mm
Diameter of inhibition zone [20]: 21.9 ± 1.20 mm
Diameter of inhibition zone [21]: 20.4 ± 0.63 mm
